# Experimental data reported in patent US20100292217A1, “RANOLAZINE FOR THE TREATMENT OF CNS DISORDERS” (Gilead Palo Alto, Inc., priority 2009, published 2010).
# Read-outs that look alike come from different tables or passages of the source.
# Key:
# WT-Nav1.1 = target: T1, WT-Nav1.1 (Homo sapiens, UniProt P35498); assay: Whole-cell voltage-clamp of WT-Nav1.1 expressed heterologously in tsA201 cells; assay type: cell-based
# T1 construct: expressed in transfected cells; host or cells: tsA201 cells, transient transfection
# Nav1.1 R1648H = target: T2, Nav1.1 R1648H (Homo sapiens, UniProt P35498, R1648H); assay: Whole-cell voltage-clamp of mutant Nav1.1 R1648H (GEFS+); assay type: cell-based
# T2 construct: expressed in transfected cells; host or cells: tsA201 cells (named for WT; same transient transfection method for mutants)
# [1] = test system: Nav1.1 mutant channels (R1648H, T875M, R1648C, F1661S, L263V, Q1489K); assay: Whole-cell voltage-clamp of panel of Nav1.1 mutant channels (GEFS+, SMEI, FHM3); assay type: cell-based, Human
# [2] = Brain penetration in rats after continuous intravenous infusion (LC-MS/MS); assay type: in vivo, Sprague Dawley rats; conditions: for concentration at 1 h / concentration at 2.5 h / concentration at 5 h: 85.5 μg/kg/min
# Method: Jugular vein cannulated male Sprague Dawley rats (250-350 g, Charles River Laboratories, Hollister, Calif.) were used to study brain penetration of ranolazine in vivo. Animal use was approved by the Institutional Animal Care and Use Committee, Gilead Sciences. Three rats per group were infused intravenously with ranolazine in saline at 85.5 μg/kg/min. After 1, 2.5 or 5 h animals were sacrificed for plasma and brain collection, and ranolazine concentrations were measured by liquid chromatography coupled with tandem mass spectrometry (LC-MS/MS). Brain tissue was homogenated in 1% 2N HCl acidified 5% sodium fluoride (final homogenate was diluted 3-fold). Plasma and brain homogenate samples (50 μl) were precipitated along with deuterated D3-ranolazine as an internal standard, vortexed and centrifuged. The supernatant (50 μL) was transferred and diluted with water (450 μl) prior to injection (10 μl). High performance liquid chromatography was performed using a Shimadzu LC-10AD liquid chromatograph and a Luna C18(2), 3 μm, 20×2.0 mm column with a mobile phase consisting of water containing 0.1% formic acid (solution A) and acetonitrile (solution B) carried out under isocratic conditions (75% solution A, 25% solution B; flow rate 0.300 ml/min). Mass spectrometric analyses were performed using an API3000 mass spectrometer (Applied Biosystems, Foster City, Calif.) operating in positive ion mode with MRM transition 428.1>98. Brain-to-plasma ranolazine ratios were calculated for each sample as ng ranolazine/g brain divided by ng ranolazine/ml plasma.
# WT-Nav1.2 = target: T3, WT-Nav1.2 (Homo sapiens, UniProt Q99250); assay: Whole-cell voltage-clamp of WT-Nav1.2 stably transfected in CHO cells; assay type: cell-based; conditions: Example 2; methods in present tense, no data given
# T3 construct: expressed in transfected cells
# Nav1.4 = conditions: inverse sodium gradient, Wang et al. 2008; cited from earlier work
# [3] = Sicouri 2008; Chaitman 2006; cited from earlier work
# [4] = target: cardiac voltage-gated potassium channel HERG (Homo sapiens, UniProt Q12809); conditions: accounts for mild QT interval prolongation in some subjects; cited from earlier work
# [5] = usual clinical dosages; minority with mild dizziness, nausea, headache, constipation; cited from earlier work
# [6] = 3 μM ranolazine, pulse trains 10-135 Hz
# [7] = pulse 300 of 10 Hz train, read-out: Use-Dependent Block of Peak Current IC50
# [8] = read-out: Tonic Block of Peak Current IC50
# [9] = read-out: Tonic Block of Persistent Current IC50
# [10] = summary statement, persistent current evoked by SCN1A mutations, channel not specified
# T3 sequence (Q99250 whole entry): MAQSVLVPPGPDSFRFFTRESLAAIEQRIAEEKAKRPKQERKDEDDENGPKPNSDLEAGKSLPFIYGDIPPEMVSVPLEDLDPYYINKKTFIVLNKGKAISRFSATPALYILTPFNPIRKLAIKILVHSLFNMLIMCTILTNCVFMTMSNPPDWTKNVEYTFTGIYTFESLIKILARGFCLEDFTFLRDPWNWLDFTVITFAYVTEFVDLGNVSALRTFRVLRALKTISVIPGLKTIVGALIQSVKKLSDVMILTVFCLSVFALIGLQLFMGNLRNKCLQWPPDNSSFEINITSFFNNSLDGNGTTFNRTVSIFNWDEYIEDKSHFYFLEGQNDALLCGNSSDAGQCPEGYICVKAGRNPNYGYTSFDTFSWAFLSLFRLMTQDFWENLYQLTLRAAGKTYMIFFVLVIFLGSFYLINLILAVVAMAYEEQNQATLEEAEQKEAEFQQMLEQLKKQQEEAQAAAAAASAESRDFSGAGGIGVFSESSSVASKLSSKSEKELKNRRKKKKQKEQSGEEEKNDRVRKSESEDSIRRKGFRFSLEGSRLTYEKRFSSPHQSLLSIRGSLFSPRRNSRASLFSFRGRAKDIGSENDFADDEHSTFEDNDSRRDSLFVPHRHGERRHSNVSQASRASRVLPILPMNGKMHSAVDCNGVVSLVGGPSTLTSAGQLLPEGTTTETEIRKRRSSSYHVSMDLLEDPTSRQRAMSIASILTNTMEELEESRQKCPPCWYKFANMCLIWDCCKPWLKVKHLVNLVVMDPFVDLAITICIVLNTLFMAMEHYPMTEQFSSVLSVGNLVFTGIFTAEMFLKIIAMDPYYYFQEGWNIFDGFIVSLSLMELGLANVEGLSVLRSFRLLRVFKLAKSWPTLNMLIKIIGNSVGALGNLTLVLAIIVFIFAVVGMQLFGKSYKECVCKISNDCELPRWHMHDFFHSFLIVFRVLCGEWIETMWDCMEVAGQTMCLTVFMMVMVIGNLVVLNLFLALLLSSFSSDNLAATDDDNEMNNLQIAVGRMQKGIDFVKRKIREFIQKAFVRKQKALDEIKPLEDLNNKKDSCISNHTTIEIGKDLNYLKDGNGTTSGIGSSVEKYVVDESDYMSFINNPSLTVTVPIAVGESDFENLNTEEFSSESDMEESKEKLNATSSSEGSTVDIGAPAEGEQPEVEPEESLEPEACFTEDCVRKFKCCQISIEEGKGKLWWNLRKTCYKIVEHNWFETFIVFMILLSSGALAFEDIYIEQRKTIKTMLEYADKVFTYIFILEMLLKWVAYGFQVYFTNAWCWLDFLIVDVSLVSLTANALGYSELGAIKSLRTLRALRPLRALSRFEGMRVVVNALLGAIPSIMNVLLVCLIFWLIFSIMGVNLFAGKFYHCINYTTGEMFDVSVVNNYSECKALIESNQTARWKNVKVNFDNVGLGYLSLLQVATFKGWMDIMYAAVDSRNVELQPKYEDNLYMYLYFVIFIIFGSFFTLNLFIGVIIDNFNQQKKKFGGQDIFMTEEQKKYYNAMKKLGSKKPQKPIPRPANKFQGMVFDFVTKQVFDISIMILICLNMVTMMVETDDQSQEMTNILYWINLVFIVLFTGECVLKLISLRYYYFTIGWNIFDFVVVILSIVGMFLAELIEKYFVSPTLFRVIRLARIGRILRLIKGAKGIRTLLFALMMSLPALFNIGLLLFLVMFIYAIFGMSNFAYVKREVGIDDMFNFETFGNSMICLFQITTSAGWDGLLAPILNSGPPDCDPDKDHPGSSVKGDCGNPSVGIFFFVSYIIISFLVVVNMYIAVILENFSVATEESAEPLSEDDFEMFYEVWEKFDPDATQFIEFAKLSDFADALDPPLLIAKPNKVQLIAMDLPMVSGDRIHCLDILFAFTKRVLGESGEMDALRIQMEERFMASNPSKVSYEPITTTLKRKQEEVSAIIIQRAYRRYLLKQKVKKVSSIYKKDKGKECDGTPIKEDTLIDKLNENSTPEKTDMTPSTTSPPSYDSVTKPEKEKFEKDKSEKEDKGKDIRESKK
# Chain of cardiac voltage-gated potassium channel HERG (Q12809 whole entry): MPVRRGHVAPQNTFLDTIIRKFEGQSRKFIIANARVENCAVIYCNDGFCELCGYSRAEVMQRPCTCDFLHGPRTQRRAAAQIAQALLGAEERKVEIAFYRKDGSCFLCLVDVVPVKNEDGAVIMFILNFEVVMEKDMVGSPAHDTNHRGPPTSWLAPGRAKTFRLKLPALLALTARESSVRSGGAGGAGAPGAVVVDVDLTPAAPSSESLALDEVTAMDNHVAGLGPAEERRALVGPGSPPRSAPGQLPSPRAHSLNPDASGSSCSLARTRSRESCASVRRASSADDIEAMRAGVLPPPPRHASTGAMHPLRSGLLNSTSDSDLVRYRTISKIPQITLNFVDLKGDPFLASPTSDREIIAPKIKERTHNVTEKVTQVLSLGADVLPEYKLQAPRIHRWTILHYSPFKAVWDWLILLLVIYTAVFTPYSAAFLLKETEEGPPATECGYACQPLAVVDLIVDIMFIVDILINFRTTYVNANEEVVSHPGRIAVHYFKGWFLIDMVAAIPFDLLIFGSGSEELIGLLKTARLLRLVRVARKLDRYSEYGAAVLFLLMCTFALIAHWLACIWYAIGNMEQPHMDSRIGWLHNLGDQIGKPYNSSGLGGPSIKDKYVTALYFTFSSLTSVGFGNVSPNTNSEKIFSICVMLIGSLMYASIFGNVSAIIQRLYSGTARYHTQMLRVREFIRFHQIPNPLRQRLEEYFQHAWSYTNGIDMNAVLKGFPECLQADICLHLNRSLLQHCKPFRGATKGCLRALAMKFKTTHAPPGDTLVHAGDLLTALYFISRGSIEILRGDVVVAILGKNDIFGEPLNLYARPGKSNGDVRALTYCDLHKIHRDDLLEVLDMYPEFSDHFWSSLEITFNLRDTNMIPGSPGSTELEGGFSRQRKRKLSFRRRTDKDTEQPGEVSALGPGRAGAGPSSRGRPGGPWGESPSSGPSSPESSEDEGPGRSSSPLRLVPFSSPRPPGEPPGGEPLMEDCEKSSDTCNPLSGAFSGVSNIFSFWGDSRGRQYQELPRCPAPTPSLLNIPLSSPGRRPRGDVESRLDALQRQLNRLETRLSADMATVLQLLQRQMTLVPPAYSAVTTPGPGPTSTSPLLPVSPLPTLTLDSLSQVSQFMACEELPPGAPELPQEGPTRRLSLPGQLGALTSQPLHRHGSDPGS
structure (smiles),measurement,setting,value
"COc1ccccc1OCC(O)CN1CCN(CC(=O)Nc2c(C)cccc2C)CC1 (racemic) [Ranolazine, (±)-N-(2,6-dimethylphenyl)-4-[2-hydroxy-3-(2-methoxyphenoxy)-propyl]-1-piperazineacetamide]",Potency at inhibiting persistent current compared to use-dependent block of peak current,WT-Nav1.1,3.6 fold
same,Selectivity for tonic block of persistent current over peak current,WT-Nav1.1,approximately 16 fold
same,Tonic Block of Peak Current k (Hill slope),WT-Nav1.1,−0.84 ± 0.15
same,Tonic Block of Persistent Current k (Hill slope),WT-Nav1.1,−0.83 ± 0.06
same,Use-dependent block: loss of channel availability,WT-Nav1.1; [6],exaggerated loss of availability at all frequencies greater than 22 Hz
same,Effect on peak current density,WT-Nav1.1; 30 μM ranolazine,no significant effect
same,Shift of voltage-dependence of activation or inactivation,WT-Nav1.1; 30 μM ranolazine,did not significantly shift
same,Tonic block of peak current,WT-Nav1.1; 30 μM ranolazine,minimal
same,Use-dependent block: peak current during repetitive pulsing,"WT-Nav1.1; 30 μM ranolazine, 5 ms, −10 mV, 300 pulses, 10 Hz",caused a reduction in peak current during repetitive pulsing
same,Inactivation k (slope factor),"WT-Nav1.1; 30 μM ranolazine, fast inactivation",−8.0 ± 0.5 mV
same,Inactivation V1/2,"WT-Nav1.1; 30 μM ranolazine, fast inactivation, 100 ms prepulses",−64.2 ± 0.8 mV
same,Activation V1/2,"WT-Nav1.1; 30 μM ranolazine, n=10",−21.6 ± 0.8 mV
same,Activation k (slope factor),"WT-Nav1.1; 30 μM ranolazine, n=10",8.0 ± 0.2 mV
same,Use-Dependent Block of Peak Current k (Hill slope),WT-Nav1.1; 10 Hz train,−0.84 ± 0.05
same,IC50,WT-Nav1.1; [7],195 µM
same,IC50,WT-Nav1.1; [8],871 µM
same,IC50,WT-Nav1.1; [9],53.7 µM
same,Potency at inhibiting persistent current compared to use-dependent block of peak current,Nav1.1 R1648H,4.6 fold
same,Selectivity for tonic block of persistent current over peak current,Nav1.1 R1648H,approximately 16 fold
same,Tonic Block of Peak Current k (Hill slope),Nav1.1 R1648H,−1.00 ± 0.19
same,Tonic Block of Persistent Current k (Hill slope),Nav1.1 R1648H,−1.00 ± 0.09
same,"Charge conducted during slow depolarizing voltage ramp (−40 to 0 mV, normalized to peak current)","Nav1.1 R1648H; 3 μM ranolazine, 20 mV/s ramp",reduced the charge conducted by R1648H to the level observed in cells expressing WT channels recorded in the absence of drug
same,Use-dependent block: loss of channel availability,Nav1.1 R1648H; [6],exaggerated loss of availability at all frequencies greater than 22 Hz
same,Effect on persistent current,Nav1.1 R1648H; 30 μM ranolazine,substantially reduced
same,Tonic block of peak current,Nav1.1 R1648H; 30 μM ranolazine,minimal tonic block
same,Use-Dependent Block of Peak Current k (Hill slope),Nav1.1 R1648H; 10 Hz train,−0.88 ± 0.03
same,IC50,Nav1.1 R1648H; [7],138 µM
same,IC50,Nav1.1 R1648H; [8],490 µM
same,IC50,Nav1.1 R1648H; [9],30.2 µM
same,Use-dependent block: channel availability by the 300th pulse,"[1]; 30 μM ranolazine, WT-Nav1.1 and mutant channels, 10 Hz",significant loss of channel availability
same,Block of persistent current compared to peak current,"[1]; 30 μM ranolazine, all mutants, tonic block",much greater degree of ranolazine block of persistent current as compared to peak current
same,Use-dependent reduction in channel availability compared to WT-Nav1.1,"[1]; 30 μM ranolazine, mutants R1648H, T875M and R1648C",significantly greater reduction in channel availability
same,Level of persistent current in presence of ranolazine versus WT-Nav1.1 without drug,"[1]; 30 μM ranolazine, mutants R1648H, T875M, L263V",not significantly different from WT-Nav1.1 channels in the absence of drug
same,Greater inhibition of persistent current compared to tonic block of peak current,[1]; [10],16 fold
same,Greater inhibition of persistent current compared to use-dependent block of peak current,[1]; [10],5 fold
same,Feasible brain concentration,[2]; extrapolated from therapeutic plasma concentration 2-10 μM,up to 3.3 μM
same,Kp at 1 h,"[2]; male, Sprague Dawley, brain, iv, rat, i.v. infusion 85.5 μg/kg/min, 1 h, read-out: Brain/Plasma",0.38
same,Kp at 2.5 h,"[2]; male, Sprague Dawley, brain, iv, rat, i.v. infusion 85.5 μg/kg/min, 2.5 h, read-out: Brain/Plasma",0.38
same,Kp at 5 h,"[2]; male, Sprague Dawley, brain, iv, rat, i.v. infusion 85.5 μg/kg/min, 5 h, read-out: Brain/Plasma",0.3
same,concentration at 1 h,"[2]; male, Sprague Dawley, rat, brain, iv, Brain (molar), rat, i.v. infusion 85.5 μg/kg/min, 1 h, heading: Brain",700 nM
same,concentration at 2.5 h,"[2]; male, Sprague Dawley, rat, brain, iv, Brain (molar), rat, i.v. infusion 85.5 μg/kg/min, 2.5 h, heading: Brain",1040 nM
same,concentration at 1 h,"[2]; male, Sprague Dawley, rat, brain, iv, rat, i.v. infusion 85.5 μg/kg/min, 1 h, read-out: Brain",298 ± 88.6 ng/g
same,concentration at 2.5 h,"[2]; male, Sprague Dawley, rat, brain, iv, rat, i.v. infusion 85.5 μg/kg/min, 2.5 h, read-out: Brain",446 ± 302 ng/g
same,concentration at 5 h,"[2]; male, Sprague Dawley, rat, brain, iv, rat, i.v. infusion 85.5 μg/kg/min, 5 h, read-out: Brain",470 ± 300 ng/g
same,concentration at 1 h,"[2]; male, Sprague Dawley, rat, plasma, iv, rat, i.v. infusion 85.5 μg/kg/min, 1 h, read-out: Plasma",777 ± 255 ng/mL
same,concentration at 2.5 h,"[2]; male, Sprague Dawley, rat, plasma, iv, rat, i.v. infusion 85.5 μg/kg/min, 2.5 h, read-out: Plasma",1180 ± 456 ng/mL
same,concentration at 5 h,"[2]; male, Sprague Dawley, rat, plasma, iv, rat, i.v. infusion 85.5 μg/kg/min, 5 h, heading: Plasma, read-out: Plasma",3720 nM
same,concentration at 5 h,"[2]; male, Sprague Dawley, rat, plasma, iv, rat, i.v. infusion 85.5 μg/kg/min, 5 h, read-out: Plasma",1590 ± 488 ng/mL
same,Brain penetration,"[2]; rat, all time points (1, 2.5, 5 h)",significant brain penetration
same,Brain,"[2]; rat, i.v. infusion 85.5 μg/kg/min, 5 h",470 ng/g
same,Mean brain levels as fraction of corresponding plasma levels,"[2]; rat, throughout the time course 1-5 h",approximately one third
same,Inhibition of WT-Nav1.2,WT-Nav1.2,has the ability to inhibit WT-Nav1.2
same,Association rate kon,Nav1.4,8.2e+06 M⁻¹ s⁻¹
same,Usual therapeutic plasma concentration,[3],2 to 10 µM
same,Block of HERG,[4],blocks
same,Tolerability,[5],well tolerated
